One may read the Kd as the constant that tells how readily two partners part at equilibrium. Read a low Kd as higher affinity.

This is an account of results in publication PMC12951562, “SH2scan: Mapping SH2 Domain-Ligand Binding Selectivity for Inhibitors and Degraders” (Journal of Medicinal Chemistry, 2026).

Non-standard residues stand in square brackets, D forms with d. Residues, ends and D or L forms follow the SMILES beside them. pY = N[C@@H](Cc1ccc(OP(=O)(O)O)cc1)C(=O)O

Common to all, as to assay: biochemical
Holding throughout (assay type): binding

One experiment addresses T1, STAP1 (Homo sapiens, UniProt Q9ULZ2).
T1 construct: made in house; host or cells: HEK293 (transient transfection), unpurified extract
T1 sequence (Q9ULZ2 1-295): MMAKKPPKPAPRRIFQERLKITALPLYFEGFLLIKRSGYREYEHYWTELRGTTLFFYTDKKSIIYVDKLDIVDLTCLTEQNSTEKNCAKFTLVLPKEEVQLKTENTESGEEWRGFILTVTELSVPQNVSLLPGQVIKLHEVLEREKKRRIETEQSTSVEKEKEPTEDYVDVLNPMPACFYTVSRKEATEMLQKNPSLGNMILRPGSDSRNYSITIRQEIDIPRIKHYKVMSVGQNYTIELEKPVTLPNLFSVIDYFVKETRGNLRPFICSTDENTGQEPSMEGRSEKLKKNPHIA

For the next experiment, the target named is T2, STAP2 (Homo sapiens, UniProt Q9UGK3).
T2 construct: made in house; host or cells: HEK293 (transient transfection), unpurified extract
T2 sequence (Q9UGK3 1-403): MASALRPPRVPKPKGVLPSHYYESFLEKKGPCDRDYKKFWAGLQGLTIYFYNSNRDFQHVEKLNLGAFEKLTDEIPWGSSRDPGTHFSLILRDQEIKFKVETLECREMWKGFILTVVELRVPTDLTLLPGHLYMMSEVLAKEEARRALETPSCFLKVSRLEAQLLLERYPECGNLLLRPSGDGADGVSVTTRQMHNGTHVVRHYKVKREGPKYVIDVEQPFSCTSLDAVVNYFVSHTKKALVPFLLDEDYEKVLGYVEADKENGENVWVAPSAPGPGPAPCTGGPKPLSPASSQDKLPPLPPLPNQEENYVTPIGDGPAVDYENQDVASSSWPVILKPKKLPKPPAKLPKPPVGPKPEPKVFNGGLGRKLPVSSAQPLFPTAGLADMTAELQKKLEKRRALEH

For another experiment, the target named is T3, GRB10 (Homo sapiens, UniProt Q13322).
T3 construct: the DNA-tagged SH2 domain concentrations used in this study were <0.1 nM; made in house; host or cells: HEK293 (transient transfection; unpurified extract)
T3 sequence (Q13322 493-574 limits assumed): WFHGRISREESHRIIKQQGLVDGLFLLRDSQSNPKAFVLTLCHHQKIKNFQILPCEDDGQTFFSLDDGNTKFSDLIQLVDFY

The target in a further experiment is T4, ITK (Homo sapiens, UniProt Q08881).
T4 construct: the DNA-tagged SH2 domain concentrations used in this study were <0.1 nM; made in house; host or cells: HEK293 (transient transfection, unpurified extract)
T4 sequence (Q08881 239-338 limits assumed): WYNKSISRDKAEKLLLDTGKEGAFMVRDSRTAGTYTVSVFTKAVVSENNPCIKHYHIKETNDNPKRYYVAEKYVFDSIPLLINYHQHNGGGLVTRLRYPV

The next experiment deals with T5, APS (SH2B2) (Homo sapiens, UniProt O14492).
T5 construct: the DNA-tagged SH2 domain concentrations used in this study were <0.1 nM; made in house; host or cells: HEK293 (transient transfection; unpurified extract)

The next experiment concerns the target T6, SLP76 (Homo sapiens, UniProt Q13094).
T6 construct: made in house; host or cells: HEK293 (transient transfection), unpurified extract
T6 sequence (Q13094 1-533): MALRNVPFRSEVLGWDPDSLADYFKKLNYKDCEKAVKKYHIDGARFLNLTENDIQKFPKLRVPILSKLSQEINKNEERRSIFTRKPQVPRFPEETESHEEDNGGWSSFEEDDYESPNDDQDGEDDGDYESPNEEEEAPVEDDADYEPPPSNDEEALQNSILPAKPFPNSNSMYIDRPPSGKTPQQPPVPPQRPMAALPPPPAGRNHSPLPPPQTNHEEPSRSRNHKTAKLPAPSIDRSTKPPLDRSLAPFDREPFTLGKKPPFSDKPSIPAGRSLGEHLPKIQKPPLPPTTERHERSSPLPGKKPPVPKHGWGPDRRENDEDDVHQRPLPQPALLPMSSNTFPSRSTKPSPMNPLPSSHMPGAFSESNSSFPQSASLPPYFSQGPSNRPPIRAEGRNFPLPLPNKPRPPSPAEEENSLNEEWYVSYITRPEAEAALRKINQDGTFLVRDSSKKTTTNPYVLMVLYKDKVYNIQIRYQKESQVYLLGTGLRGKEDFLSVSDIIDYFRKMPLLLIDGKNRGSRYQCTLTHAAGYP

A further experiment deals with T7, BRK (Homo sapiens, UniProt Q13882).
T7 construct: the DNA-tagged SH2 domain concentrations used in this study were <0.1 nM; made in house; host or cells: HEK293 (transient transfection; unpurified extract)

Another experiment concerns the target T8, MIST (Homo sapiens, UniProt Q7Z7G1).
T8 construct: the DNA-tagged SH2 domain concentrations used in this study were <0.1 nM; made in house; host or cells: HEK293 (transient transfection, unpurified extract)
T8 sequence (Q7Z7G1 309-419 limits assumed): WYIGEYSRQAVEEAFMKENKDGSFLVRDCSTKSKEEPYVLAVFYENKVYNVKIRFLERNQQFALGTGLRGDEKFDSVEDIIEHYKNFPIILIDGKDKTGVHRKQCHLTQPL

Another experiment deals with T9, BLNK (Homo sapiens, UniProt Q8WV28).
T9 construct: the DNA-tagged SH2 domain concentrations used in this study were <0.1 nM; made in house; host or cells: HEK293 (transient transfection; unpurified extract)
T9 sequence (Q8WV28 346-453 limits assumed): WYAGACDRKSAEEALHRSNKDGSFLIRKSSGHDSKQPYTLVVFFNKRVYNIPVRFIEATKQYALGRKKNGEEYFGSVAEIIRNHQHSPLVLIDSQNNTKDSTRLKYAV

T5 sequence (O14492 417-515 limits assumed): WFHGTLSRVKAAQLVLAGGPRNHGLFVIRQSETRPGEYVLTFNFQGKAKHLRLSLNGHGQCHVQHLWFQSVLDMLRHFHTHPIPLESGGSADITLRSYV
T7 sequence (Q13882 78-170 limits assumed): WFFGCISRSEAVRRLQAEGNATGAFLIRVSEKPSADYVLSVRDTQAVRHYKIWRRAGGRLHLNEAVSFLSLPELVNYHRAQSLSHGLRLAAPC

For `CC[C@H](C)[C@H](NC(=O)[C@H](CC(C)C)NC(=O)[C@@H](NC(=O)[C@H](CC(N)=O)NC(=O)[C@H](CCC(=O)O)NC(=O)[C@H](Cc1ccc(OP(=O)(O)O)cc1)NC(=O)[C@H](CO)NC(=O)[C@H](CC(N)=O)NC(=O)[C@H](C)NC(C)=O)C(C)C)C(=O)N[C@@H](C)C(=O)N[C@@H](CCCCN)C(N)=O` (Ac-ANS[pY]ENVLIAK-NH2), the Kd on STAP1 turned out to be 2780 ± 615 nM; at STAP2, 38.9 ± 7.93 µM.

On to `CC(=O)N[C@@H](CC(=O)O)C(=O)N[C@@H](CC(=O)O)C(=O)N[C@@H](CC(=O)O)C(=O)N[C@@H](Cc1ccc(OP(=O)(O)O)cc1)C(=O)N[C@@H](CC(=O)O)C(=O)N[C@@H](CC(=O)O)C(=O)N[C@H](C(=O)N[C@@H](CC(=O)O)C(N)=O)C(C)C` [Ac-DDDpYDDVD-NH2] (Ac-DDD[pY]DDVD-NH2), for which the Kd at GRB10 stood at 1260 ± 1160 nM; on ITK it was 1450 ± 153 nM; at APS (SH2B2), 8.78 ± 0.971 µM; on SLP76, 1410 ± 432 nM; at BRK it was 226 ± 200 nM; at MIST, 32.9 ± 6.7 nM. The compound further returned a Kd at BLNK of 137 ± 22.4 nM.
